Where a SMILES comes first, the peptide text is derived from it.
Columns and labels:
human gut microbiota = assay: lactate and short-chain fatty acid production in i-screen with human gut microbiota; type: cell-based; conditions: 24 h, amino acids 3.5 mM, dipeptides 7 mM
Source text: To determine the effect of the probiotic strains Bacillus subtilis DSM 32315, Bacillus subtilis DSM 32540, Bacillus licheniformis DSM 32314 and Bacillus amyloliquefaciens CECT 5940 on adult colonic microbiota, an intestinal screening model was used (i-screen, TNO, the Netherlands). Therefore the i-screen model was inoculated with standard human adult fecal microbiota material, which consisted of pooled fecal donations from 6 healthy adult volunteers (Caucasian, European lifestyle and nutrition). The fecal material was mixed and grown in a fed-batch fermenter for 40 hours to create a standardized microbiota as described previously. These standard adult gut microbiota sets were stored at −80° C. in 12% glycerol.
The intestinal microbiota was cultured in vitro in modified standard ileal efflux medium (SIEM), the composition of which was described by and modified as follows: 0.047 g/l pectin, 0.047 g/l xylan, 0.047 g/l arabinogalactan, 0.047 g/l amylopectin, 0.392 g/l starch, 24.0 g/l casein, 24.0 Bacto pepton, 0.4 ox-bile and 0.2 g/l cysteine. All components were supplied by Trititium Microbiology (Veldhoven, The Netherlands). The pH of the medium was adjusted to 5.8.
For the i-screen fermentations, the precultured standardized fecal inoculum was diluted 50 times in 1350 μl modified SIEM. All experiments have been carried out in triplicates. The strains Bacillus subtilis (DSM 32315), Bacillus subtilis DSM 32540, Bacillus licheniformis DSM 32314 and Bacillus amyloliquefaciens CECT 5940 were precultured separately in 50 ml LBKelly medium, for about 16 h. Incubation was done in shaking flasks at 37° C. under aerobic conditions. After incubation, bacterial density was determined by optical density measurement at 600 nm. A final stock solution of 1×10^10 cells/ml was prepared in 1 ml buffer solution (0.1 mM MES pH 6). The suspension of each strain was introduced into the i-screen to a final level of about 10^9 cells/ml, respectively
The i-screen incubation was performed under following gas conditions: 0.2% O2, 0.2% CO2, 10% H2, 89.6% N2.
The effect of the combination of different probiotic strains together with glutamine, or glutamine- or glutamic acid-containing dipeptides containing peptides on the n-butyrate production of the microbial community was analyzed for the strain B. subtilis (DSM 32315) as described in example 1 and 5. The single amino acids were added to a concentration of 3.5 mM and the dipeptides to a concentration of 7 mM.
The effects of the combination of different probiotic strains together with glutamine, or glutamine- or glutamic acid-containing dipeptides containing peptides on the n-butyrate production of the microbial community were analyzed for the strains B. licheniformis (DSM 32314) and B. amyloliquefaciens (CECT 5940) as described in example 1, 5, and 10. The single amino acids were added to a concentration of 3.5 mM and the dipeptides to a concentration of 7 mM.

colonic human microbiota = assay: i-screen intestinal screening model, microbiota composition by 16S rRNA V4 sequencing (whole community, Bacillus persistence); type: cell-based; conditions: for effect on the microbial community: Example 8, amino acids 3.5 mM, 0% O2; for effect on the microbial community / other genera relative abundance: dipeptides 7 mM; for synergy on microbial community composition (higher increase of Clostridium XIVa, higher decrease of Clostridium XI than single additions): 24 h; for other genera relative abundance: 24 h SIEM, amino acids 3.5 mM
Source text: To determine the effect of the probiotic strains Bacillus subtilis DSM 32315, Bacillus subtilis DSM 32540, Bacillus licheniformis DSM 32314 and Bacillus amyloliquefaciens CECT 5940 on adult colonic microbiota, an intestinal screening model was used (i-screen, TNO, the Netherlands). Therefore the i-screen model was inoculated with standard human adult fecal microbiota material, which consisted of pooled fecal donations from 6 healthy adult volunteers (Caucasian, European lifestyle and nutrition). The fecal material was mixed and grown in a fed-batch fermenter for 40 hours to create a standardized microbiota as described previously. These standard adult gut microbiota sets were stored at -80° C. in 12% glycerol. The intestinal microbiota was cultured in vitro in modified standard ileal efflux medium (SIEM), the composition of which was described by and modified as follows: 0.047 g/l pectin, 0.047 g/l xylan, 0.047 g/l arabinogalactan, 0.047 g/l amylopectin, 0.392 g/l starch, 24.0 g/l casein, 24.0 Bacto pepton, 0.4 ox-bile and 0.2 g/l cysteine. All components were supplied by Trititium Microbiology (Veldhoven, The Netherlands). The pH of the medium was adjusted to 5.8. For the i-screen fermentations, the precultured standardized fecal inoculum was diluted 50 times in 1350 μl modified SIEM. All experiments have been carried out in triplicates. The strains Bacillus subtilis (DSM 32315), Bacillus subtilis DSM 32540, Bacillus licheniformis DSM 32314 and Bacillus amyloliquefaciens CECT 5940 were precultured separately in 50 ml LBKelly medium, for about 16 h. Incubation was done in shaking flasks at 37° C. under aerobic conditions. After incubation, bacterial density was determined by optical density measurement at 600 nm. A final stock solution of 1×10^10 cells/ml was prepared in 1 ml buffer solution (0.1 mM MES pH 6). […] DNA extraction for the sequencing of 16S rRNA coding genes was performed as described by […] et al. (2013) with some minor modifications. Approximately 100 μl of the culture materials were added to the wells of a 96 well plate containing per well 300 μl of lysis buffer (Mag Mini DNA Isolation Kit, LGC ltd, UK), 500 μl zirconium beads (0.1 mm; BioSpec products, Bartlesville, OK, USA) and 500 μl of phenol saturated with Tris-HCI (pH 8.0; Carl Roth GMBH, Germany). The 96 well plate was placed in a Mini-BeadBeater-96 (BioSpec products, Bartlesville, Okla, USA) for 2 min at 2100 oscillations/min. DNA was subsequently purified using the Agowa Mag Mini DNA Isolation Kit according to the manufacturer recommendations. Extracted DNA was eluted in a final volume of 60 μl buffer. The microbiota composition was analyzed by 16S rRNA gene amplicon sequencing of the V4 Hypervariable Region. This was Achieved Through a Series of Steps: The amount of bacterial DNA in the i-screen DNA samples was determined by quantitative polymerase chain reaction (qPCR) using primers specific for the bacterial 16S rRNA gene: Subsequently, PCR amplicons of the V4 hypervariable region of the 16S rRNA gene were generated for the individual samples by amplification of […] of DNA as described by (2013), using […]/[…] primers. Primers included Illumina adapters and a unique 8-nt sample index sequence key. A mock control was included for technical quality control. […] The Library was quantified using the Quant-iTTM PicoGreen® dsDNA Assay Kit (Thermo Fisher Scientific). Paired-end sequencing of amplicons was conducted on the Illumina MiSeq platform (Illumina, Eindhoven, The Netherlands). The sequence data was processed with Mothur v.1.36.1 [26] in line with the mothur MiSeq SOP [24]. Before merging the read pairs, low quality regions were trimmed using Btrim with a sliding window size of 5 nt and average quality score of 25. After merging, the sequences were filtered by length while no ambiguous bases were allowed. […] Chimeric sequences were identified per sample using […] [28] in de novo mode and removed. […]

[1] = in combination with B. amyloliquefaciens (CECT 5940)
[2] = in combination with B. subtilis (DSM 32315)
[3] = microbiota + CECT 5940 (first group so headed, r13-r15)
[4] = microbiota + CECT 5940 (second group so headed, r16-r18)
[5] = in combination with B. licheniformis (DSM 32314)

SMILES | synergy on n-butyrate concentration (human gut microbiota; [1]) | synergy on n-butyrate concentration (human gut microbiota; [2]) | effect on the microbial community (colonic human microbiota) | synergy on microbial community composition (higher increase of Clostridium XIVa, higher decrease of Clostridium XI than single additions) (colonic human microbiota; [1]) | other genera relative abundance (colonic human microbiota; [3]) | other genera relative abundance (colonic human microbiota; [4]) | other genera relative abundance (colonic human microbiota; microbiota + DSM 32315) | other genera relative abundance (colonic human microbiota; microbiota, no probiotic cells) | synergy on n-butyrate concentration (human gut microbiota; [5]) | synergy on microbial community composition (higher increase of Clostridium XIVa, higher decrease of Clostridium XI than single additions) (colonic human microbiota; [5]) | synergy on microbial community composition (higher increase of Clostridium XIVa, higher decrease of Clostridium XI than single additions) (colonic human microbiota; [2])
NC(=O)CC[C@H](N)C(=O)O [Gln, glutamine, reference compound] | Synergistic positive effects | Synergistic positive effects | no positive effect on the microbial community | synergistic effect | 79% | 70% | 74% | 72% |  |  | 
CC(=O)N[C@@H](C)C(=O)N[C@@H](CCC(N)=O)C(=O)O [Ac-Ala-Gln] (Ac-Ala-Gln-OH) |  |  |  |  | 78% | 76% | 67% | 72% |  |  | 
C[C@H](N)C(=O)N[C@@H](CCC(N)=O)C(=O)O [Ala-Gln, Alanine-Glutamine] (H-Ala-Gln-OH) |  | Synergistic positive effects |  | synergistic effect | 90% | 94% | 96% | 98% | Synergistic positive effects | synergistic effect | synergistic effect
N[C@@H](CCC(=O)O)C(=O)O [Glu, glutamic acid, reference compound] |  | Synergistic positive effects | no positive effect on the microbial community |  | 73% | 80% | 72% | 72% |  |  | 
NCC(=O)O.N[C@@H](CCC(=O)O)C(=O)O [Gly-Glu, Glycine-Glutamic acid] |  | Synergistic positive effects |  | synergistic effect | 91% | 90% | 92% | 95% | Synergistic positive effects | synergistic effect | synergistic effect
